Measured values: patent US11965204B2, “Detection of analytes by enzyme-mediated strand displacement reactions” (priority 2020, dated 2024)

B1: MphR: aTF used to sense macrolides; SEQ ID NO: 22 (protein, listed as Escherichia coli)
chain: MPRPKLKSDDEVLEAATVVLKRCGPIEFTLSGVAKEVGLSRAALIQRFTNRDTLLVRMMERGVEQVRHYLNAIPIGAGPQGLWEFLQVLVRSMNTRNDFSVNYLISWYELQVPELRTLAIQRNRAVVEGIRKRLPPGAPAAAELLLHSVIAGATMQWAVDPDGELADHVLAQIAAILCLMFPEHDDFQLLQAHA

Tests used:
[1] = system: MphR; assay: MphR-based biosensor, derepression by ligand; format: biochemical, E. coli; conditions: fixed concentration of MphR; erythromycin 0 nM-2.5 uM; FIG. 10
From the text: (§1) Here we present two biosensors built with the described mechanism above. As shown in FIGS. 7A-7B, the aTF TetR (SEQ ID NO: 21) can be used to build a tetracycline biosensor using its corresponding operator sequence in the DNA template and partially in the IP (SEQ ID NO: 19). Increasing concentrations of TetR decrease the rate of the reaction as there is less DNA template accessible to HgaI. When the system is repressed by a given concentration of TetR, it can be derepressed by the ligand tetracycline. The rate of the reaction is proportional to the concentration of tetracycline within a certain concentration range (FIG. 8). Similarly, a circuit using the aTF MphR (SEQ ID NO: 22) with its corresponding operator sequence (SEQ ID NOs: 17 and 18) in the DNA template and partially in the IP (SEQ ID NO: 20) can be used to sense macrolides.
(§2) HgaI/Toehold-Mediated Strand Displacement Reactions.

[2] = system: DNA template (S) with MphR operator sequence; assay: Titration of MphR in the HgaI/toehold-mediated strand displacement reaction; format: biochemical; conditions: absence of erythromycin; MphR 0 nM-3 uM; FIG. 9B
From the text: FIG. 9A illustrates the components of the biosensor, indicating the DNA template (S) and Invading Probe (IP) sequences and modifications.
as §1, §2

Row | Molecule | response of the MphR-repressed reaction to the ligand [1] | effect of increasing aTF concentration on reaction rate [2]
1 | CC[C@H]1OC(=O)[C@H](C)[C@@H](O[C@H]2C[C@@](C)(OC)[C@@H](O)[C@H](C)O2)[C@H](C)[C@@H](O[C@@H]2O[C@H](C)C[C@H](N(C)C)[C@H]2O)[C@](C)(O)C[C@@H](C)C(=O)[C@H](C)[C@@H](O)[C@]1(C)O [erythromycin] | proportionally higher reaction rates | 
2 | B1 |  | decrease of the reaction rate
